Among the data in patent US20260297081A1, “COMPOUNDS AND METHODS OF TREATING CANCERS” (Cullgen Inc., priority 2023, published 2026) are activity values, retold here.

The target of this assay is CDK4 (Homo sapiens, UniProt P11802+Q16531). Description: HiBiT detection of HiBiT-tagged CDK4 protein level in MCF7 cells, 16 hours (Table 8). Set-up: expressed in transfected cells; host or cells: MCF7. The following applies: MCF7 cells stably expressing HiBiT tagged target proteins; for activity at 0.01 µM: 10 nM, read-out: % CDK4 Relative Level (10 nM); for activity at 0.1 µM: 100 nM, read-out: % CDK4 Relative Level (100 nM). The format is cell-based. The protocol: HiBiT detection system quantitatively measures total amounts of HiBiT-tagged proteins using a luminescent based method. MCF7 cells stably expressing HiBiT tagged target proteins were treated with heterobifunctional compounds at indicated concentrations for 16 hours, then lysed with Nano-Glo HiBiT Lytic detection reagents.
A general note: With HiBiT, luminescence reflects the tagged protein that the partner subunit can reach.

Chain of CDK4 (P11802 whole entry): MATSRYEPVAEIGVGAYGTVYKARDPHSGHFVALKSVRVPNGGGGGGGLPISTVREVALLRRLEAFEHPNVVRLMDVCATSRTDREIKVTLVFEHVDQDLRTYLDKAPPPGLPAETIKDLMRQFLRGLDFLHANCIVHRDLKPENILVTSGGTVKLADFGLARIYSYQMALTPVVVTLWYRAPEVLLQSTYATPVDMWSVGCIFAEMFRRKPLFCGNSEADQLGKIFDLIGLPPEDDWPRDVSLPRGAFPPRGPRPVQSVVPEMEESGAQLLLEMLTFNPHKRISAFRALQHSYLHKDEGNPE
Chain of CDK4 (P24385 whole entry partner): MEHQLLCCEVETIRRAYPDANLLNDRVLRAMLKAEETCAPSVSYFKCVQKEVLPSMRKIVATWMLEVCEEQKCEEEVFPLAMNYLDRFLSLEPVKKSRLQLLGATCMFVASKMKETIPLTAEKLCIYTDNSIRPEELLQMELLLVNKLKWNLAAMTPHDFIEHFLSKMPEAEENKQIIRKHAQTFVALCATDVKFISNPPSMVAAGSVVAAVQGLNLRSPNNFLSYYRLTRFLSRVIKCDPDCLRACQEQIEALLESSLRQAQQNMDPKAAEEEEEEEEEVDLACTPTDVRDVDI
Chain of CDK4 (Q16531 2-1140 limits assumed): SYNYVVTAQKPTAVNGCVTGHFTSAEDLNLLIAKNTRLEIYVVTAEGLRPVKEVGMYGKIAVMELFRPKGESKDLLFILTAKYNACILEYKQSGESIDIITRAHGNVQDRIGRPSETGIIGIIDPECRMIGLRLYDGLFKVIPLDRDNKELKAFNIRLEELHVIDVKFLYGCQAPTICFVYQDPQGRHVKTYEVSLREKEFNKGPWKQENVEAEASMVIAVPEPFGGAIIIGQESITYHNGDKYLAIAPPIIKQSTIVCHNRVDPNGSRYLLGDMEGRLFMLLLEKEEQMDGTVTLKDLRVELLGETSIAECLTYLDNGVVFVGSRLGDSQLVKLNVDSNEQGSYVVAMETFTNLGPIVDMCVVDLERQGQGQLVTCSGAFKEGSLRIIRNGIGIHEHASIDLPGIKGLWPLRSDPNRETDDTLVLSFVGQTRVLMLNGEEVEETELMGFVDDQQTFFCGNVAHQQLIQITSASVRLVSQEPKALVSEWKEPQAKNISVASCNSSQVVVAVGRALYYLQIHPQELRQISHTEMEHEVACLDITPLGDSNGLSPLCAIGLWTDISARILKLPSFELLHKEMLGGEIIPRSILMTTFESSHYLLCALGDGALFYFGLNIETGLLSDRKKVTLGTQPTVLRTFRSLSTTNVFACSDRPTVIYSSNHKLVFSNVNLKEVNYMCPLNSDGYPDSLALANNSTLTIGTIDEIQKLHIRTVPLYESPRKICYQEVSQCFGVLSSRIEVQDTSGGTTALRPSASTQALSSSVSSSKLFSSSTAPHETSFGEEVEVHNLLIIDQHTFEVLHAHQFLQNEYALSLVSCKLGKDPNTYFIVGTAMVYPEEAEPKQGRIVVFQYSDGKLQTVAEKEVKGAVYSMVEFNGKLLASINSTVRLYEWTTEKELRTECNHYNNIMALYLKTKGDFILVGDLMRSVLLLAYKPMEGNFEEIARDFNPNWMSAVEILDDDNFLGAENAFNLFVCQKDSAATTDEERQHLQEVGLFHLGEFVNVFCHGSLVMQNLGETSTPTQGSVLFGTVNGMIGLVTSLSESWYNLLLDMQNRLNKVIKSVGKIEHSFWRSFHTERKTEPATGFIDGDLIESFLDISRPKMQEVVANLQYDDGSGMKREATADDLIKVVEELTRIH

For `CNc1ccc(C(=O)Nc2ccc(N(C)C)nn2)c(NCCCNC(=O)CN2CCN(c3ccc(Nc4ncc(F)c(-c5cc(F)c6nc(C)n(C(C)C)c6c5)n4)nc3)CC2)n1` [CPD-659, N-(6-(dimethylamino)pyridazin-3-yl)-2-((3-(2-(4-(6-((5-fluoro-4-(4-fluoro-1-isopropyl-2-methyl-1H-benzo[d]imidazol-6-yl)pyrimidin-2-yl)amino)pyridin-3-yl)piperazin-1-yl)acetamido)propyl)amino)-6-(methylamino)nicotinamide], the activity at 0.01 µM was more than 85% and the activity at 0.1 µM was more than 85%.

In the case of `CNc1ccc(C(=O)Nc2ccc(N(C)C)nn2)c(NCCCCNC(=O)CN2CCN(c3ccc(Nc4ncc(F)c(-c5cc(F)c6nc(C)n(C(C)C)c6c5)n4)nc3)CC2)n1` [CPD-660, N-(6-(dimethylamino)pyridazin-3-yl)-2-((4-(2-(4-(6-((5-fluoro-4-(4-fluoro-1-isopropyl-2-methyl-1H-benzo[d]imidazol-6-yl)pyrimidin-2-yl)amino)pyridin-3-yl)piperazin-1-yl)acetamido)butyl)amino)-6-(methylamino)nicotinamide], the activity at 0.01 µM was more than 85% and the activity at 0.1 µM is more than 85%.

Take `CNc1ccc(C(=O)Nc2ccc(N(C)C)nn2)c(NCCCCCNC(=O)CN2CCN(c3ccc(Nc4ncc(F)c(-c5cc(F)c6nc(C)n(C(C)C)c6c5)n4)nc3)CC2)n1` [CPD-661, N-(6-(dimethylamino)pyridazin-3-yl)-2-((5-(2-(4-(6-((5-fluoro-4-(4-fluoro-1-isopropyl-2-methyl-1H-benzo[d]imidazol-6-yl)pyrimidin-2-yl)amino)pyridin-3-yl)piperazin-1-yl)acetamido)pentyl)amino)-6-(methylamino)nicotinamide]: the activity at 0.01 µM was more than 85% and the activity at 0.1 µM was more than 85%.

In the case of `CNc1ccc(C(=O)Nc2ccc(N(C)C)nn2)c(NCCCCCCNC(=O)CN2CCN(c3ccc(Nc4ncc(F)c(-c5cc(F)c6nc(C)n(C(C)C)c6c5)n4)nc3)CC2)n1` [CPD-662, N-(6-(dimethylamino)pyridazin-3-yl)-2-((6-(2-(4-(6-((5-fluoro-4-(4-fluoro-1-isopropyl-2-methyl-1H-benzo[d]imidazol-6-yl)pyrimidin-2-yl)amino)pyridin-3-yl)piperazin-1-yl)acetamido)hexyl)amino)-6-(methylamino)nicotinamide], the activity at 0.01 µM was more than 85% and the activity at 0.1 µM is more than 85%.

On to `CNc1ccc(C(=O)Nc2ccc(N(C)C)nn2)c(NCCCCCCCNC(=O)CN2CCN(c3ccc(Nc4ncc(F)c(-c5cc(F)c6nc(C)n(C(C)C)c6c5)n4)nc3)CC2)n1` [CPD-663, N-(6-(dimethylamino)pyridazin-3-yl)-2-((7-(2-(4-(6-((5-fluoro-4-(4-fluoro-1-isopropyl-2-methyl-1H-benzo[d]imidazol-6-yl)pyrimidin-2-yl)amino)pyridin-3-yl)piperazin-1-yl)acetamido)heptyl)amino)-6-(methylamino)nicotinamide], for which the activity at 0.01 µM was more than 85% and the activity at 0.1 µM lay in the range of 55 to 85%.

Consider `CNc1ccc(C(=O)Nc2ccc(N(C)C)nn2)c(NCCCCCCCCNC(=O)CN2CCN(c3ccc(Nc4ncc(F)c(-c5cc(F)c6nc(C)n(C(C)C)c6c5)n4)nc3)CC2)n1` [CPD-664, N-(6-(dimethylamino)pyridazin-3-yl)-2-((8-(2-(4-(6-((5-fluoro-4-(4-fluoro-1-isopropyl-2-methyl-1H-benzo[d]imidazol-6-yl)pyrimidin-2-yl)amino)pyridin-3-yl)piperazin-1-yl)acetamido)octyl)amino)-6-(methylamino)nicotinamide], for which the activity at 0.01 µM was more than 85% and the activity at 0.1 µM was more than 85%.

Take `CNc1ccc(C(=O)Nc2ccc(N(C)C)nn2)c(NCCOCCNC(=O)CN2CCN(c3ccc(Nc4ncc(F)c(-c5cc(F)c6nc(C)n(C(C)C)c6c5)n4)nc3)CC2)n1` [CPD-665, N-(6-(dimethylamino)pyridazin-3-yl)-2-((2-(2-(2-(4-(6-((5-fluoro-4-(4-fluoro-1-isopropyl-2-methyl-1H-benzo[d]imidazol-6-yl)pyrimidin-2-yl)amino)pyridin-3-yl)piperazin-1-yl)acetamido)ethoxy)ethyl)amino)-6-(methylamino)nicotinamide]: the activity at 0.01 µM was in the range of 55 to 85% and the activity at 0.1 µM is more than 85%.

Take `CNc1ccc(C(=O)Nc2ccc(N(C)C)nn2)c(NCCC(=O)NC2CCC(Nc3ncc4ccc(=O)n(C5CCCC5)c4n3)CC2)n1` (stereo not drawn) [CPD-666, 2-((3-((4-((8-cyclopentyl-7-oxo-7,8-dihydropyrido[2,3-d]pyrimidin-2-yl)amino)cyclohexyl)amino)-3-oxopropyl)amino)-N-(6-(dimethylamino)pyridazin-3-yl)-6-(methylamino)nicotinamide]: the activity at 0.01 µM is more than 85% and the activity at 0.1 µM is more than 85%.

As to `CNc1ccc(C(=O)Nc2ccc(N(C)C)nn2)c(NCCCC(=O)NC2CCC(Nc3ncc4ccc(=O)n(C5CCCC5)c4n3)CC2)n1` (stereo not drawn) [CPD-667, 2-((4-((4-((8-cyclopentyl-7-oxo-7,8-dihydropyrido[2,3-d]pyrimidin-2-yl)amino)cyclohexyl)amino)-4-oxobutyl)amino)-N-(6-(dimethylamino)pyridazin-3-yl)-6-(methylamino)nicotinamide], the activity at 0.01 µM was more than 85% and the activity at 0.1 µM was more than 85%.

As for `CNc1ccc(C(=O)Nc2ccc(N(C)C)nn2)c(NCCCCC(=O)NC2CCC(Nc3ncc4ccc(=O)n(C5CCCC5)c4n3)CC2)n1` (stereo not drawn) [CPD-668, 2-((5-((4-((8-cyclopentyl-7-oxo-7,8-dihydropyrido[2,3-d]pyrimidin-2-yl)amino)cyclohexyl)amino)-5-oxopentyl)amino)-N-(6-(dimethylamino)pyridazin-3-yl)-6-(methylamino)nicotinamide], the activity at 0.01 µM is more than 85% and the activity at 0.1 µM is more than 85%.

`CNc1ccc(C(=O)Nc2ccc(N(C)C)nn2)c(NCCCCCC(=O)NC2CCC(Nc3ncc4ccc(=O)n(C5CCCC5)c4n3)CC2)n1` (stereo not drawn) [CPD-669, 2-((6-((4-((8-cyclopentyl-7-oxo-7,8-dihydropyrido[2,3-d]pyrimidin-2-yl)amino)cyclohexyl)amino)-6-oxohexyl)amino)-N-(6-(dimethylamino)pyridazin-3-yl)-6-(methylamino)nicotinamide]: the activity at 0.01 µM is more than 85% and the activity at 0.1 µM was more than 85%.

In the case of `CNc1ccc(C(=O)Nc2ccc(N(C)C)nn2)c(NCCCCCCC(=O)NC2CCC(Nc3ncc4ccc(=O)n(C5CCCC5)c4n3)CC2)n1` (stereo not drawn) [CPD-670, 2-((7-((4-((8-cyclopentyl-7-oxo-7,8-dihydropyrido[2,3-d]pyrimidin-2-yl)amino)cyclohexyl)amino)-7-oxoheptyl)amino)-N-(6-(dimethylamino)pyridazin-3-yl)-6-(methylamino)nicotinamide], the activity at 0.01 µM was more than 85% and the activity at 0.1 µM was more than 85%.

Consider `CNc1ccc(C(=O)Nc2ccc(N(C)C)nn2)c(NCCCCCCCC(=O)NC2CCC(Nc3ncc4ccc(=O)n(C5CCCC5)c4n3)CC2)n1` (stereo not drawn) [CPD-671, 2-((8-((4-((8-cyclopentyl-7-oxo-7,8-dihydropyrido[2,3-d]pyrimidin-2-yl)amino)cyclohexyl)amino)-8-oxooctyl)amino)-N-(6-(dimethylamino)pyridazin-3-yl)-6-(methylamino)nicotinamide], for which the activity at 0.01 µM is more than 85% and the activity at 0.1 µM was more than 85%.

For `CNc1ccc(C(=O)Nc2ccc(N(C)C)nn2)c(NCCOCCC(=O)NC2CCC(Nc3ncc4ccc(=O)n(C5CCCC5)c4n3)CC2)n1` (stereo not drawn) [CPD-672, 2-((2-(3-((4-((8-cyclopentyl-7-oxo-7,8-dihydropyrido[2,3-d]pyrimidin-2-yl)amino)cyclohexyl)amino)-3-oxopropoxy)ethyl)amino)-N-(6-(dimethylamino)pyridazin-3-yl)-6-(methylamino)nicotinamide], the activity at 0.01 µM was more than 85% and the activity at 0.1 µM is more than 85%.

As to `CNc1ccc(C(=O)Nc2ccc(N(C)C)nn2)c(NCCC(=O)NC2CCC3(CC2)CC(Nc2ncc4ccc(=O)n(C5CCCC5)c4n2)C3)n1` (stereo not drawn) [CPD-673, 2-((3-((2-((8-cyclopentyl-7-oxo-7,8-dihydropyrido[2,3-d]pyrimidin-2-yl)amino)spiro[3.5]nonan-7-yl)amino)-3-oxopropyl)amino)-N-(6-(dimethylamino)pyridazin-3-yl)-6-(methylamino)nicotinamide], the activity at 0.01 µM was more than 85% and the activity at 0.1 µM was more than 85%.

Take `CNc1ccc(C(=O)Nc2ccc(N(C)C)nn2)c(NCCCC(=O)NC2CCC3(CC2)CC(Nc2ncc4ccc(=O)n(C5CCCC5)c4n2)C3)n1` (stereo not drawn) [CPD-674, 2-((4-((2-((8-cyclopentyl-7-oxo-7,8-dihydropyrido[2,3-d]pyrimidin-2-yl)amino)spiro[3.5]nonan-7-yl)amino)-4-oxobutyl)amino)-N-(6-(dimethylamino)pyridazin-3-yl)-6-(methylamino)nicotinamide]: the activity at 0.01 µM is more than 85% and the activity at 0.1 µM is more than 85%.

Consider `CNc1ccc(C(=O)Nc2ccc(N(C)C)nn2)c(NCCCCC(=O)NC2CCC3(CC2)CC(Nc2ncc4ccc(=O)n(C5CCCC5)c4n2)C3)n1` (stereo not drawn) [CPD-675, 2-((5-((2-((8-cyclopentyl-7-oxo-7,8-dihydropyrido[2,3-d]pyrimidin-2-yl)amino)spiro[3.5]nonan-7-yl)amino)-5-oxopentyl)amino)-N-(6-(dimethylamino)pyridazin-3-yl)-6-(methylamino)nicotinamide], for which the activity at 0.01 µM was more than 85% and the activity at 0.1 µM is more than 85%.

As for `CNc1ccc(C(=O)Nc2ccc(N(C)C)nn2)c(NCCCCCC(=O)NC2CCC3(CC2)CC(Nc2ncc4ccc(=O)n(C5CCCC5)c4n2)C3)n1` (stereo not drawn) [CPD-676, 2-((6-((2-((8-cyclopentyl-7-oxo-7,8-dihydropyrido[2,3-d]pyrimidin-2-yl)amino)spiro[3.5]nonan-7-yl)amino)-6-oxohexyl)amino)-N-(6-(dimethylamino)pyridazin-3-yl)-6-(methylamino)nicotinamide], the activity at 0.01 µM is more than 85% and the activity at 0.1 µM was more than 85%.
